# How the values were obtained:
# Assay type in all cases: in vivo
# db/db mice [1] = assay: Blood glucose levels in db/db mice (Example 1); settings: NT-4/5 20 mg/kg s.c., Rosiglitazone 3 mg/kg p.o.
# Method: Administration of NT-4/5 and reference substances: Rosiglitazone (3 mg/kg, Sequoia Research Products Ltd., UK), a thiazolidinedione compound for the therapy of type 2 diabetes, was used in the present experiment as a reference. Phosphate buffer saline was used as vehicle in this experiment. NT-4/5 was obtained from Genentech.
# (§1) A difference was considered significant for p<0.05.
# db/db mice [2] = assay: HbA1c in db/db mice (Example 1)
# Method: as §1
# HbA1c levels were determined using an HbA1c kit (ref. 650262, Beckman Coulter, France) and a Synchron CX4 synchronizer. HbA1c is an indicator for blood glucose control over the last 2-3 months. The normal level of HbA1c in C57BL/6J mouse (determined by measuring 8 normal healthy C57BL/6J mice) was about 3.5%.
# db/db mice [3] = assay: Blood triglyceride levels in db/db mice (Example 1); settings: NT-4/5 20 mg/kg s.c., Rosiglitazone 3 mg/kg p.o.
# Method: Test animals: 24 female 10-12 weeks old db/db mice (C57BL/Ks J Rj-db/db, Janvier, France), weighing in the target range of 40-50 g, were used in this study. […] Upon receipt at animal facilities, they were housed 4 per cage covered with filtered caps and at least a 5-day acclimation period was observed.
# The mice were divided into three groups of 8 mice each (groups 1-3). Each group was treated with vehicle (PBS) subcutaneously (s.c.), 3 mg/kg Rosiglitazone orally (p.o.), or 20 mg/kg NT-4/5 subcutaneously (s.c.). From day 1 to day 5 (T1-T5) and then from day 8 to day 12 (T8-T12), the mice in groups 2 and 3 were dosed once daily for 5 consecutive days, with a volume of 10 ml/kg.
# Collection of samples for analysis: One day before beginning the treatment (T0), non fasted db/db mice were weighed and blood samples were collected through the retro-orbital plexus (about 300 μL/mouse) under isoflurane anesthesia. Similarly, at day 5 (T5), day 12 (T12), day 19 (T19) and day 26 (T26), two hours after the last administration, blood samples were collected through the retro-orbital plexus under isoflurane anesthesia in non fasted mice. […] An aliquot of serum was used for measuring glucose levels, the remaining was frozen until use.
# Analysis of blood samples in db/db mice: Pre- and post dose serum levels of glucose, HbA1c, cholesterol and triglycerides, insulin, and non esterified fatty acids (NEFA), as well as aspirate amino-transferase (AST) and alanine amino-transferase activities (ALT) activities, were determined at different time points, as described further herein. At each time point and for each parameter, a mean % of the effect was calculated according to the following formula: ((T final−T initial)/T initial)*100. Statistical analysis was consistent in a one-way analysis of variance followed by multiple comparisons versus the vehicle group (Dunnett's test) on final values. In case the equal variance test fails, a Kruskall-Wallis one-way analysis of variance on ranks was conducted. A difference was considered significant for p<0.05.
# db/db mice [4] = assay: Total blood cholesterol levels in db/db mice (Example 1); settings: NT-4/5 20 mg/kg s.c., Rosiglitazone 3 mg/kg p.o.
# Method: as §1
# The blood triglyceride level and the total blood cholesterol level were determined with a triglyceride assay kit (ref 445850, Beckman Coutler, France) and a total cholesterol kit (ref 467825, Beckman Coutler, France), respectively, using a Synchron CX4 analyzer.
# db/db mice [5] = assay: Serum nonesterified fatty acids (NEFA) in db/db mice (Example 1); settings: NT-4/5 20 mg/kg s.c., Rosiglitazone 3 mg/kg p.o.
# Method: as §1
# Serum nonesterified fatty acids (NEFA) levels were determined by calorimetric method using a non esterified fatty acids kit (ref. FA 15, Randox, France).
# db/db mice [6] = assay: Blood insulin level by ELISA in db/db mice (Example 1); settings: NT-4/5 20 mg/kg s.c., Rosiglitazone 3 mg/kg p.o.
# Method: as §1
# The blood insulin level was determined by ELISA using an Insulin ELIT Plus kit (ref. INSRAT01-8N, Eurobio, France).
# db/db mice [7] = assay: Body weight of db/db mice (Example 1); settings: NT-4/5 20 mg/kg s.c., Rosiglitazone 3 mg/kg p.o.
# Method: (§2) Throughout the experiment period (T1-T26), daily individual body weights as well as food intake per cage were measured.
# db/db mice [8] = assay: Food intake of db/db mice (Example 1); settings: NT-4/5 20 mg/kg s.c., Rosiglitazone 3 mg/kg p.o.
# Method: as §2
smiles,measurement,setting,value
"CN(CCOc1ccc(CC2SC(=O)NC2=O)cc1)c1ccccn1 (stereo not drawn) [Rosiglitazone, reference compound]",blood glucose levels T0,"db/db mice [1]; day 0, before treatment",37.56 mM
same,blood glucose % effect T5-T0,db/db mice [1]; day 5 vs day 0,−40.5%
same,blood glucose levels T12,db/db mice [1]; day 12,22.24 mM
same,blood glucose % effect T12-T0,db/db mice [1]; day 12 vs day 0,−40.9%
same,blood glucose levels T19,db/db mice [1]; day 19 (dosing stopped day 12),33.74 mM
same,blood glucose % effect T19-T0,db/db mice [1]; day 19 vs day 0,−9.0%
same,blood glucose levels T26,db/db mice [1]; day 26 (dosing stopped day 12),43.60 mM
same,blood glucose % effect T26-T0,db/db mice [1]; day 26 vs day 0,17.5%
same,HbA1c level decrease at T12,db/db mice [2]; T12 vs T0,1%
same,HbA1c level decrease at T26,db/db mice [2]; T26 as compared to T0,9.6%
same,HbA1c T0,"db/db mice [2]; day 0, before treatment, NT-4/5 20 mg/kg s.c., Rosiglitazone 3 mg/kg p.o.",5.74%
same,HbA1c T12,"db/db mice [2]; day 12, NT-4/5 20 mg/kg s.c., Rosiglitazone 3 mg/kg p.o.",5.69%
same,HbA1c % effect T12-T0,"db/db mice [2]; day 12 vs day 0, NT-4/5 20 mg/kg s.c., Rosiglitazone 3 mg/kg p.o.",−1.0%
same,HbA1c T26,"db/db mice [2]; day 26, NT-4/5 20 mg/kg s.c., Rosiglitazone 3 mg/kg p.o.",5.18%
same,HbA1c % effect T26-T0,"db/db mice [2]; day 26 vs day 0, NT-4/5 20 mg/kg s.c., Rosiglitazone 3 mg/kg p.o.",−9.6%
same,triglycerides levels T0,"db/db mice [3]; day 0, before treatment",1.39 mM
same,triglycerides levels T5,db/db mice [3]; day 5,0.81 mM
same,triglycerides % effect T5-T0,db/db mice [3]; day 5 vs day 0,−30.1%
same,triglycerides levels T12,db/db mice [3]; day 12,0.61 mM
same,triglycerides % effect T12-T0,db/db mice [3]; day 12 vs day 0,−51.0%
same,triglycerides levels T19,db/db mice [3]; day 19,0.64 mM
same,triglycerides % effect T19-T0,db/db mice [3]; day 19 vs day 0,−46.1%
same,triglycerides levels T26,db/db mice [3]; day 26,1.58 mM
same,triglycerides % effect T26-T0,db/db mice [3]; day 26 vs day 0,23.4%
same,cholesterol levels T0,"db/db mice [4]; day 0, before treatment",3.27 mM
same,cholesterol levels T5,db/db mice [4]; day 5,3.48 mM
same,cholesterol % effect T5-T0,db/db mice [4]; day 5 vs day 0,6.5%
same,cholesterol levels T12,db/db mice [4]; day 12,3.25 mM
same,cholesterol % effect T12-T0,db/db mice [4]; day 12 vs day 0,−0.3%
same,cholesterol levels T19,db/db mice [4]; day 19,3.01 mM
same,cholesterol % effect T19-T0,db/db mice [4]; day 19 vs day 0,−7.5%
same,cholesterol levels T26,db/db mice [4]; day 26,3.05 mM
same,cholesterol % effect T26-T0,db/db mice [4]; day 26 vs day 0,−6.7%
same,NEFA levels T0,"db/db mice [5]; day 0, before treatment",0.782 mM
same,NEFA levels T5,db/db mice [5]; day 5,0.507 mM
same,NEFA % effect T5-T0,db/db mice [5]; day 5 vs day 0,−32.8%
same,NEFA levels T12,db/db mice [5]; day 12,0.444 mM
same,NEFA % effect T12-T0,db/db mice [5]; day 12 vs day 0,−39.9%
same,NEFA levels T19,db/db mice [5]; day 19,0.739 mM
same,NEFA % effect T19-T0,db/db mice [5]; day 19 vs day 0,−2.2%
same,NEFA levels T26,db/db mice [5]; day 26,0.345 mM
same,NEFA % effect T26-T0,db/db mice [5]; day 26 vs day 0,−53.7%
same,insulin levels T0,"db/db mice [6]; day 0, before treatment",6.93 nM
same,insulin levels T5,db/db mice [6]; day 5,3.94 nM
same,insulin % effect T5-T0,db/db mice [6]; day 5 vs day 0,−37.0%
same,insulin levels T12,db/db mice [6]; day 12,2.85 nM
same,insulin % effect T12-T0,db/db mice [6]; day 12 vs day 0,−51.8%
same,insulin levels T19,db/db mice [6]; day 19,7.30 nM
same,insulin % effect T19-T0,db/db mice [6]; day 19 vs day 0,14.4%
same,insulin levels T26,db/db mice [6]; day 26,6.33 nM
same,insulin % effect T26-T0,db/db mice [6]; day 26 vs day 0,−5.7%
same,"body weight, mean",db/db mice [7]; Day 0,42.3 g
same,"body weight expressed as % of baseline, mean",db/db mice [7]; Day 1,98.3 % of baseline
same,"body weight, mean",db/db mice [7]; Day 1,41.6 g
same,"body weight expressed as % of baseline, mean",db/db mice [7]; Day 2,99.5 % of baseline
same,"body weight, mean",db/db mice [7]; Day 2,42.1 g
same,"body weight expressed as % of baseline, mean",db/db mice [7]; Day 3,100.0 % of baseline
same,"body weight, mean",db/db mice [7]; Day 3,42.3 g
same,"body weight expressed as % of baseline, mean",db/db mice [7]; Day 4,100.8 % of baseline
same,"body weight, mean",db/db mice [7]; Day 4,42.7 g
same,"body weight expressed as % of baseline, mean",db/db mice [7]; Day 5,102.2 % of baseline
same,"body weight, mean",db/db mice [7]; Day 5,43.3 g
same,"body weight expressed as % of baseline, mean",db/db mice [7]; Day 6,100.6 % of baseline
same,"body weight, mean",db/db mice [7]; Day 6,42.6 g
same,"body weight expressed as % of baseline, mean",db/db mice [7]; Day 7,101.1 % of baseline
same,"body weight, mean",db/db mice [7]; Day 7,42.8 g
same,"body weight expressed as % of baseline, mean",db/db mice [7]; Day 8,102.3 % of baseline
same,"body weight, mean",db/db mice [7]; Day 8,43.3 g
same,"body weight expressed as % of baseline, mean",db/db mice [7]; Day 9,103.8 % of baseline
same,"body weight, mean",db/db mice [7]; Day 9,43.9 g
same,"body weight expressed as % of baseline, mean",db/db mice [7]; Day 10,104.2 % of baseline
same,"body weight, mean",db/db mice [7]; Day 10,44.1 g
same,"body weight expressed as % of baseline, mean",db/db mice [7]; Day 11,104.9 % of baseline
same,"body weight, mean",db/db mice [7]; Day 11,44.4 g
same,"body weight expressed as % of baseline, mean",db/db mice [7]; Day 12,106.3 % of baseline
same,"body weight, mean",db/db mice [7]; Day 12,45.0 g
same,"body weight expressed as % of baseline, mean",db/db mice [7]; Day 13,104.9 % of baseline
same,"body weight, mean",db/db mice [7]; Day 13,44.4 g
same,"body weight expressed as % of baseline, mean",db/db mice [7]; Day 14,105.1 % of baseline
same,"body weight, mean",db/db mice [7]; Day 14,44.5 g
same,"body weight expressed as % of baseline, mean",db/db mice [7]; Day 15,104.9 % of baseline
same,"body weight, mean",db/db mice [7]; Day 15,44.4 g
same,"body weight expressed as % of baseline, mean",db/db mice [7]; Day 18,105.5 % of baseline
same,"body weight, mean",db/db mice [7]; Day 18,44.7 g
same,"body weight expressed as % of baseline, mean",db/db mice [7]; Day 19,106.0 % of baseline
same,"body weight, mean",db/db mice [7]; Day 19,44.9 g
same,"body weight expressed as % of baseline, mean",db/db mice [7]; Day 20,104.3 % of baseline
same,"body weight, mean",db/db mice [7]; Day 20,44.2 g
same,"body weight expressed as % of baseline, mean",db/db mice [7]; Day 21,105.3 % of baseline
same,"body weight, mean",db/db mice [7]; Day 21,44.6 g
same,"body weight expressed as % of baseline, mean",db/db mice [7]; Day 22,105.1 % of baseline
same,"body weight, mean",db/db mice [7]; Day 22,44.5 g
same,"body weight expressed as % of baseline, mean",db/db mice [7]; Day 25,106.7 % of baseline
same,"body weight, mean",db/db mice [7]; Day 25,45.2 g
same,"body weight expressed as % of baseline, mean",db/db mice [7]; Day 26,106.9 % of baseline
same,"body weight, mean",db/db mice [7]; Day 26,45.3 g
same,"food intake, mean",db/db mice [8]; Day 1,100.8 g/kg/day
same,"food intake, mean",db/db mice [8]; Day 2,124.9 g/kg/day
same,"food intake, mean",db/db mice [8]; Day 3,137.8 g/kg/day
same,"food intake, mean",db/db mice [8]; Day 5,143.1 g/kg/day
same,"food intake, mean",db/db mice [8]; Day 6,63.4 g/kg/day
same,"food intake, mean",db/db mice [8]; Day 7,96.6 g/kg/day
same,"food intake, mean",db/db mice [8]; Day 8,129.1 g/kg/day
same,"food intake, mean",db/db mice [8]; Day 9,139.3 g/kg/day
same,"food intake, mean",db/db mice [8]; Day 10,140.2 g/kg/day
same,"food intake, mean",db/db mice [8]; Day 11,128.1 g/kg/day
same,"food intake, mean",db/db mice [8]; Day 12,114.4 g/kg/day
same,"food intake, mean",db/db mice [8]; Day 13,98.3 g/kg/day
same,"food intake, mean",db/db mice [8]; Day 14,129.1 g/kg/day
same,"food intake, mean",db/db mice [8]; Day 15,100.3 g/kg/day
same,"food intake, mean",db/db mice [8]; Day 18,108.2 g/kg/day
same,"food intake, mean",db/db mice [8]; Day 19,102.0 g/kg/day
same,"food intake, mean",db/db mice [8]; Day 20,90.5 g/kg/day
same,"food intake, mean",db/db mice [8]; Day 21,129.9 g/kg/day
same,"food intake, mean",db/db mice [8]; Day 22,122.3 g/kg/day
same,"food intake, mean",db/db mice [8]; Day 25,125.4 g/kg/day
same,"food intake, mean",db/db mice [8]; Day 26,109.2 g/kg/day
